Measured values from the NIST ThermoML archive (doi:10.1016/j.jct.2015.03.012).
Numbers after ± are expanded uncertainties. Each block holds one molecule with its values, some of them ahead of it.

Tests used:
[1] = mn = molality of the nth substance listed, in mol/kg; conditions: 298.15 K, 101.3 kPa, Liquid, Vibrating tube method
[2] = wn = mass fraction of the nth substance listed; conditions: 298.15 K, 101.3 kPa, Liquid, Vibrating tube method

SMILES: OCC1CO1 (stereo not drawn) [2,3-epoxy-1-propanol] + O
mass density ([1]; m1 = 0.4019): 1001.85 ± 0.44 kg/m3

SMILES: OC[C@@H]1CO1 [R-(+)-glycidol] + O
mass density ([1]; m1 = 0.402): 1002.68 ± 0.27 kg/m3

SMILES: OC[C@H]1CO1 [S-(-)-glycidol] + O
mass density ([1]; m1 = 0.4554): 1002.79 ± 0.27 kg/m3

mass density ([2]; w1 = 0.05): 996.463 ± 0.11 kg/m3
mass density ([2]; w1 = 0.1001): 996.232 ± 0.11 kg/m3
mass density ([2]; w1 = 0.15): 996.24 ± 0.11 kg/m3
mass density ([2]; w1 = 0.2001): 996.402 ± 0.11 kg/m3
mass density ([2]; w1 = 0.2502): 996.649 ± 0.11 kg/m3
SMILES: CN(C)C=O [dimethylformamide] + O
